Patent US20080261207A1, “Method of Measuring Cancer Susceptibility” (priority 2004, published 2008)

Tested on: p21 mRNA
Assay: Radiation-induced p21 mRNA induction in heparinized whole blood incubated with dietary supplements (FIG. 5)
Format: cell-based, human
Conditions: heparinized whole blood of a single individual, EGC 10 μM, rLA 10 μg/mL, Cur 1 μM; for radiation-induced p21 expression: 1 hour at 37° C. with supplement, 1 Gy ionizing radiation, another 2 hours at 37° C.; for p21 levels on control blood (no radiation) / background p21 levels: incubated with supplement at 37° C., without radiation
Experimental: The protocol for measuring mRNA levels employed in this example was as follows. The assay procedure consists of 3 major steps: 1) leukocyte isolation and lysis on filterplates, 2) mRNA isolation, reverse primer hybridization, and cDNA synthesis in oligo(dT)-immobilized microplates, and 3) real time quantitative PCR. In brief, filterplates were placed over collection plates, and 150 μL 5 mmol/L Tris, pH 7.4, was applied to wet the filter membranes. Following centrifugation at 120×g for 1 min at 4° C. to remove solution from the filterplates, 50 μL of well-mixed blood samples were applied to each well and immediately centrifuged at 120×g for 2 min at 4° C., followed by washing of each well with 300 μL phosphate buffered saline (PBS) once with centrifugation at 2000×g for 5 min at 4° C. Then, 60 μL stock lysis buffer (see below), supplemented with 1% 2-mercaptoethanol (Bio Rad), 0.5 mg/mL proteinase K (Pierce), 0.1 mg/mL salmon sperm DNA (5 Prime Eppendorf/Brinkmann), 0.1 mg/mL E. coli tRNA (Sigma), […] each of specific reverse primers, and 10^7 molecules/mL of synthetic RNA34 as an internal standard, were applied to the filterplates, followed by incubation at 37° C. for 10 min. The filterplates were then placed over oligo(dT)-immobilized microplates (GenePlate, RNAture), and centrifuged at 2000×g for 5 min at 4° C. Following overnight storage at 4° C., the microplates were washed with 100 μL plain lysis buffer 3 times, and then with 150 μL wash buffer (0.5 mol/L NaCl, 10 mmol/L Tris, pH 7.4, 1 mmol/L EDTA) 3 times at 4° C. The cDNA was directly synthesized in each well by adding 30 μL buffer containing 1×RT-buffer (50 mmol/L KCl, 10 mmol/L Tris-HCl, pH 8.3, 5.5 mmol/L MgCl2, no dithiothreitol), 1.25 mmol/L each of dNTP, 4 units rRNasin, and 80 units of MMLV reverse transcriptase (Promega) (without primers), and incubation at 37° C. for 2 hours. The resultant 4 μL cDNA was directly transferred to 384-well PCR plates, to which 5 μL TaqMan universal master mix (Applied Biosystems) and 1 μL oligonucleotide cocktail (15 μmol/L each of forward and reverse primer, and 3-6 μmol/L TaqMan probe) were applied, and PCR was conducted in a PRISM 7900HT (Applied Biosystems), with one cycle of 95° C. for 10 min followed by 45 cycles of 95° C. for 30 sec, 55° C. for 30 sec, and 60° C. for 1 min. Each gene was amplified in separate wells. The cycle threshold (Ct), which was the cycle of PCR to generate certain amounts of PCR products (fluorescence), was determined using analytical software (SDS, Applied Biosystems). PCR was also conducted directly in the GenePlate using an iCycler (BioRad). […] First, heparinized whole blood was incubated with various dietary supplements at 37° C. for 1 hour (2 tubes for each compound). Then one tube was exposed to 1 Gy of ionizing radiation, then both tubes were incubated for another 2 hours at 37° C. The p21 mRNA was quantitated as described above. […] In FIG. 5, each data point is the mean ±standard deviation of p21 mRNA with ([…]) or without (◯) 1 Gy radiation. […] Data points surrounded by a circle indicate p<0.05.

SMILES | radiation-induced p21 expression | p21 levels on control blood (no radiation) / background p21 levels
COc1cc(/C=C/C(=O)CC(=O)/C=C/c2ccc(O)c(OC)c2)ccc1O [curcumin] | enhanced | increased
O=C(O[C@@H]1Cc2c(O)cc(O)cc2O[C@@H]1c1cc(O)c(O)c(O)c1)c1cc(O)c(O)c(O)c1 [epigallocatechin gallate] | significantly enhanced | did not show any changes
CCCCC/C=C\C/C=C\C/C=C\CCCCC(=O)O [γ-linoleic acid] | enhanced | increased
